Source: patent US20220195533A1, “ARYL HYDROCARBON RECEPTOR (AHR) ACTIVATION SIGNATURE AND METHODS FOR DETERMINING AHR SIGNALING STATUS” (DEUTSCHES KREBSFORSCHUNGSZENTRUM STIFTUNG DES OFFENTLICHEN …, priority 2019, published 2022)

System: AHR
Experiment: AHR signature gene set testing in tumor tissue of advanced melanoma patients after immune checkpoint inhibition
Format: in vivo, human
Settings: tumor tissue of advanced melanoma patients after treatment (GSE91061), FIG. 31C
From the text: The eBayes adjusted moderated t-statistic was applied for differential gene expression using limma (Ritchie, M E, et al. (2015). limma powers differential expression analyses for RNA-sequencing and microarray studies. Nucleic Acids Research 43(7), e47) and limma-trend (Phipson, B, et al. (2016). Robust hyperparameter estimation protects against hypervariable genes and improves power to detect differential expression. Annals of Applied Statistics 10(2), 946-963) or the limma RNA-seq pipeline (Ritchie, M E, et al. (2015). limma powers differential expression analyses for RNA-sequencing and microarray studies. Nucleic Acids Research 43(7), e47). Batch effects, when present, were accounted for in the linear regression. Gene set testing of AHR activation was performed using roast (Wu, D., et al. (2010). ROAST: rotation gene set tests for complex microarray experiments. Bioinformatics 26, 2176-2182).
Using an AHR signature comprising of all the biomarkers in Table 1, allows the detection of AHR modulation caused by both direct and indirect AHR modulators in a cell type and ligand type independent fashion.

For “Nivolumab: immune checkpoint inhibition; indirect modulation of AHR through immunotherapy”, the “modulation of AHR detected with AHR signature of all Table 1 biomarkers” value was “indirect modulation of AHR”.
